What all share (format): cell-based
The test system of assay [1] is Enterococcus faecalis ATCC29212 B4. Description: MIC determination according to CLSI. To be noted: Enterococcus faecalis ATCC29212, strain B4. An excerpt:
(§1) For example, the compounds of the present invention show antimicrobial, e.g. antibacterial, activity against gram positive bacteria, such as coagulase-positive and coagulase-negative Staphylococci, e.g. Staphylococcus aureus, Styphylococcus epidermis, Staphylococcus haemolyticus, Streptococci, e.g. Streptococcus pyogenes, Streptococcus pneumoniae, Streptococcus agalacticae, Enterococci, e.g. Enterococcus faecium and Moraxellaceae, e.g. Moraxella catarrhalis, Pasteurellaceae, e.g. Haemophilus influenzae, as well as against Mycoplasmactaceae, Chlamydiaceae, e.g. Chlamydia trachomatis, Chlamydia pneumoniae and obligatory anaerobes, e.g. Bacteroides fragilis, Clostridium difficile; in vitro in the Agar Dilution Test or Microdilution Test according to the Clinical and Laboratory Standards Institute (CLSI, former National Committee for Clinical Laboratory Standards (NCCLS) 2006, Document M7-A7 Vol. 26, No. 2: “Methods for dilution Antimicrobial Susceptibility Tests for Bacteria that Grow Aerobically—Seventh Edition, Approved Standard”; and in the in vitro determination of the antibacterial activity against anaerobic bacteria according to National Committee for Clinical Laboratory Standards (NCCLS) VOL. 24, No. 2, M11-A5, Methods for Antimicrobal Susceptibility Testing of Anaerobic Bacteria; Approved Standard; Sixth Edition (2004) and in vivo in the septicaemic mouse model against Staphylococcus aureus.
(§2) The antibacterial activity expressed as minimal inhibitory concentration (MIC) was determined according to the approved standard reference recommendations of CLSI (former NCCLS).

Assay [2] deals with Enterococcus faecalis ATCC51299 B5. Description: MIC determination according to CLSI. As to conditions: Enterococcus faecalis ATCC51299, strain B5.
Source text: as §1, §2

Assay [3] concerns Escherichia coli ATCC25922 B1. Kind of assay: MIC determination according to CLSI. As to conditions: Escherichia coli ATCC25922, strain B1.
Source text: as §1, §2

In assay [4] the test system is Moraxella catarrhalis ATCC43618 B407. Description: MIC determination according to CLSI. To be noted: Moraxella catarrhalis ATCC43618, strain B407.
Source text: as §1, §2

Assay [5] relates to Staphylococcus aureus (MSSA) ATCC10390 B6. Description: MIC determination according to CLSI. To be noted: Staphylococcus aureus (MSSA) ATCC10390, strain B6.
Source text: as §1, §2

The test system of assay [6] is Staphylococcus aureus (MSSA) ATCC29213 B7. Kind of assay: MIC determination according to CLSI. As to conditions: Staphylococcus aureus (MSSA) ATCC29213, strain B7.
Source text: as §1, §2

The test system of assay [7] is Streptococcus pneumoniae ATCC49619 B11. Description: MIC determination according to CLSI. To be noted: Streptococcus pneumoniae ATCC49619, strain B11.
Source text: as §1, §2

In assay [8] the test system is Staphylococcus aureus, Enterococcus faecalis, Streptococcus pneumoniae, Moraxella catarrhalis and Escherichia coli. Kind of assay: Antibacterial activity (MIC) against panel of clinical relevant bacterial pathogens. As to conditions: for activity against the clinical relevant bacterial pathogens: in vitro, statement in words. The method, then:
as §2

From patent US9061980B2, “Organic compounds” (NABRIVA THERAPEUTICS, AG, priority 2007, dated 2015) come the findings set out here.

Values after ≈ are worked out from the molar mass of the structure shown. Read-outs that look alike come from different tables or passages of the source.

As for `C=C[C@]1(C)C[C@@H](OC(=O)COc2cccc(C)c2)[C@]2(C)[C@H](C)CC[C@]3(CCC(=O)[C@H]32)[C@@H](C)[C@@H]1O` [Example 19, 14-O-[(3-Methyl-phenoxy)-acetyl]-mutilin], the MIC in assay [1] was >6.4 µg/mL; in assay [2] it was >6.4 µg/mL; in assay [3] it was >6.4 µg/mL; in assay [4], 0.0125 µg/mL (≈ 0.0267 µM); in assay [5], 0.05 µg/mL (≈ 0.107 µM); in assay [6], 0.05 µg/mL (≈ 0.107 µM). In assay [7], this compound yielded an MIC of 0.64 µg/mL (≈ 1.37 µM).
For the compound `C=C[C@]1(C)C[C@@H](OC(=O)COc2cccc(O)c2)[C@]2(C)C(C)CCC3(CCC(=O)C32)[C@@H](C)[C@@H]1O` (stereo partly shown) [Example 15, 14-O-[(3-Hydroxy-phenoxy)-acetyl]-mutilin], the MIC in assay [1] (read-out: MIC) was 12.8 µg/mL (≈ 27.2 µM); in assay [2] (read-out: MIC) it was 25.6 µg/mL (≈ 54.4 µM); in assay [3] (read-out: MIC), > 25.6 µg/mL; in assay [4] (read-out: MIC), ≤ 0.0125 µg/mL; in assay [5] (read-out: MIC), 0.025 µg/mL (≈ 0.0531 µM); in assay [6] (read-out: MIC) it was 0.025 µg/mL (≈ 0.0531 µM). In assay [7] (read-out: MIC), the MIC turned out to be 0.04 µg/mL (≈ 0.085 µM). The “activity against the clinical relevant bacterial pathogens” value (“activity” for short) in assay [8] is given as “very good activity”.
On to `C=C[C@]1(C)C[C@@H](OC(=O)CSc2cccc(O)c2)[C@]2(C)C(C)CCC3(CCC(=O)C32)[C@@H](C)[C@@H]1O` (stereo partly shown) [Example 7, 14-O-[(3-Hydroxy-phenylsulfanyl)-acetyl]-mutilin], for which the MIC in assay [1] (read-out: MIC) is > 25.6 µg/mL; in assay [2] (read-out: MIC) it was > 25.6 µg/mL; in assay [3] (read-out: MIC), > 25.6 µg/mL; in assay [4] (read-out: MIC) it was ≤ 0.0125 µg/mL; in assay [5] (read-out: MIC) it was ≤ 0.0125 µg/mL; in assay [6] (read-out: MIC) it was ≤ 0.0125 µg/mL. The MIC in assay [7] (read-out: MIC) is 0.02 µg/mL (≈ 0.0411 µM). Moreover, the “activity” value in assay [8] is “very good activity”.
`C=C[C@]1(C)C[C@@H](OC(=O)CSc2ccccc2O)[C@]2(C)C(C)CCC3(CCC(=O)C32)[C@@H](C)[C@@H]1O` (stereo partly shown) [Example 9, 14-O-[(2-Hydroxy-phenylsulfanyl)-acetyl]-mutilin]: the minimal inhibitory concentration (MIC) in assay [1] (read-out: MIC) was > 25.6 µg/mL; in assay [2] (read-out: MIC), > 25.6 µg/mL; in assay [3] (read-out: MIC) it was > 25.6 µg/mL; in assay [4] (read-out: MIC), ≤ 0.0125 µg/mL; in assay [5] (read-out: MIC), ≤ 0.0125 µg/mL; in assay [6] (read-out: MIC), ≤ 0.0125 µg/mL. In assay [7] (read-out: MIC), the minimum inhibitory concentration (MIC) was 0.16 µg/mL (≈ 0.329 µM).
On to `C=C[C@]1(C)C[C@@H](OC(=O)COc2ccccc2O)[C@]2(C)C(C)CCC3(CCC(=O)C32)[C@@H](C)[C@@H]1O` (stereo partly shown) [Example 17, 14-O-[(2-Hydroxy-phenoxy)-acetyl]-mutilin], for which the MIC in assay [1] (read-out: MIC) was > 6.4 µg/mL; in assay [2] (read-out: MIC) it was > 6.4 µg/mL; in assay [3] (read-out: MIC) it was > 6.4 µg/mL; in assay [4] (read-out: MIC), 0.0125 µg/mL (≈ 0.0266 µM); in assay [5] (read-out: MIC), 0.05 µg/mL (≈ 0.106 µM); in assay [6] (read-out: MIC), 0.05 µg/mL (≈ 0.106 µM). In addition, the MIC in assay [7] (read-out: MIC) stood at 0.16 µg/mL (≈ 0.34 µM).
In the case of `C=C[C@]1(C)C[C@@H](OC(=O)CSc2ccccc2F)[C@]2(C)C(C)CCC3(CCC(=O)C32)[C@@H](C)[C@@H]1O` (stereo partly shown) [Example 3, 14-O-[(2-Fluoro-phenylsulfanyl)-acetyl]-mutilin], the minimal inhibitory concentration (MIC) is > 25.6 µg/mL in assay [1] (read-out: MIC); > 25.6 µg/mL in assay [2] (read-out: MIC); > 25.6 µg/mL in assay [3] (read-out: MIC); 0.025 µg/mL (≈ 0.0512 µM) in assay [4] (read-out: MIC); 0.05 µg/mL (≈ 0.102 µM) in assay [5] (read-out: MIC); 0.05 µg/mL (≈ 0.102 µM) in assay [6] (read-out: MIC). In addition, in assay [7] (read-out: MIC), the MIC is 0.16 µg/mL (≈ 0.327 µM).
As for `C=C[C@]1(C)C[C@@H](OC(=O)CSc2ccccc2OC)[C@]2(C)C(C)CCC3(CCC(=O)C32)[C@@H](C)[C@@H]1O` (stereo partly shown) [Example 12, 14-O-[(2-Methoxy-phenylsulfanyl)-acetyl]mutilin], the MIC was > 25.6 µg/mL in assay [1] (read-out: MIC); > 25.6 µg/mL in assay [2] (read-out: MIC); > 25.6 µg/mL in assay [3] (read-out: MIC); 0.1 µg/mL (≈ 0.2 µM) in assay [4] (read-out: MIC); 0.2 µg/mL (≈ 0.399 µM) in assay [5] (read-out: MIC); 0.2 µg/mL (≈ 0.399 µM) in assay [6] (read-out: MIC). The MIC in assay [7] (read-out: MIC) worked out at 0.16 µg/mL (≈ 0.32 µM).
For the compound `C=C[C@]1(C)C[C@@H](OC(=O)CSc2cccc(C)c2)[C@]2(C)C(C)CCC3(CCC(=O)C32)[C@@H](C)[C@@H]1O` (stereo partly shown) [Example 14, 14-O-[(3-Methyl-phenylsulfanyl)-acetyl]-mutilin], the MIC is > 6.4 µg/mL in assay [1] (read-out: MIC); > 6.4 µg/mL in assay [2] (read-out: MIC); > 6.4 µg/mL in assay [3] (read-out: MIC); 0.0125 µg/mL (≈ 0.0258 µM) in assay [4] (read-out: MIC); 0.025 µg/mL (≈ 0.0516 µM) in assay [5] (read-out: MIC); 0.05 µg/mL (≈ 0.103 µM) in assay [6] (read-out: MIC). In assay [7] (read-out: MIC), the MIC is 0.16 µg/mL (≈ 0.33 µM).
Turning to `C=C[C@]1(C)C[C@@H](OC(=O)CSc2ccc(F)cc2F)[C@]2(C)C(C)CCC3(CCC(=O)C32)[C@@H](C)[C@@H]1O` (stereo partly shown) [Example 6, 14-O-[(2,4-Difluoro-phenylsulfanyl)-acetyl]-mutilin], the MIC was > 25.6 µg/mL in assay [1] (read-out: MIC); > 25.6 µg/mL in assay [2] (read-out: MIC); > 25.6 µg/mL in assay [3] (read-out: MIC); 0.05 µg/mL (≈ 0.0987 µM) in assay [4] (read-out: MIC); 0.1 µg/mL (≈ 0.197 µM) in assay [5] (read-out: MIC); 0.1 µg/mL (≈ 0.197 µM) in assay [6] (read-out: MIC). The minimal inhibitory concentration (MIC) in assay [7] (read-out: MIC) stood at 0.32 µg/mL (≈ 0.632 µM).
For the compound `C=C[C@]1(C)C[C@@H](OC(=O)CSc2cccc(F)c2)[C@]2(C)C(C)CCC3(CCC(=O)C32)[C@@H](C)[C@@H]1O` (stereo partly shown) [Example 1, 14-O-[(3-Fluoro-phenylsulfanyl)-acetyl]-mutilin], the MIC in assay [1] (read-out: MIC) is 3.2 µg/mL (≈ 6.55 µM); in assay [2] (read-out: MIC) it was > 25.6 µg/mL; in assay [3] (read-out: MIC), > 25.6 µg/mL; in assay [4] (read-out: MIC) it was ≤ 0.0125 µg/mL; in assay [5] (read-out: MIC), ≤ 0.0125 µg/mL; in assay [6] (read-out: MIC), ≤ 0.0125 µg/mL. The MIC in assay [7] (read-out: MIC) was 0.04 µg/mL (≈ 0.0819 µM). The “factor by which MICs are lower than the MICs of the comparator compounds” value in assay [8] (against at least one of the strains shown in Table 1, comparators examples 3, 6, 9, 12, 14 and 17) is ≥ 2. Moreover, the “activity” value in assay [8] was “very good activity”.
Take `C=C[C@]1(C)C[C@@H](OC(=O)CSc2cccc(OC)c2)[C@]2(C)C(C)CCC3(CCC(=O)C32)[C@@H](C)[C@@H]1O` (stereo partly shown) [Example 10, 14-O-[(3-Methoxy-phenylsulfanyl)-acetyl]-mutilin]: the minimal inhibitory concentration (MIC) is > 25.6 µg/mL in assay [1] (read-out: MIC); > 25.6 µg/mL in assay [2] (read-out: MIC); > 25.6 µg/mL in assay [3] (read-out: MIC); ≤ 0.0125 µg/mL in assay [4] (read-out: MIC); 0.025 µg/mL (≈ 0.0499 µM) in assay [5] (read-out: MIC); 0.025 µg/mL (≈ 0.0499 µM) in assay [6] (read-out: MIC). The minimum inhibitory concentration (MIC) in assay [7] (read-out: MIC) was 0.04 µg/mL (≈ 0.0799 µM). Further, in assay [8], the “activity” value is “very good activity”.
